Read-outs that look alike come from different tables or passages of the source.
How the values were obtained:
Assay type in all cases: cell-based
[1] = test system: MOLT-4 cells; assay: Cell viability assay, MTS, 72 h, MOLT-4; details: for IC50: Homo sapiens
Method: (§1) Cancer cells from different tissue origins including acute lymphoblastic leukemia (MOLT4 and RS4; 11), small cell lung cancer (NCI-H146 or simply H146), and multiple myeloma (EJM and H929) were incubated with increasing concentrations of Examples 1-21 or ABT-263 for 72 h. Cell viability was measured by tetrazolium-based MTS assay. 5×10^4 to 1×10^5 suspension cells or 3×10^3 to 5×10^3 adherent cells were seeded and treated in 96-well plates for 72 h. The EC50 values of individual agents were calculated with GraphPad Prism.

[2] = test system: RS4 cells; assay: Cell viability assay, MTS, 72 h, RS4;11; details: Homo sapiens
Method: as §1

[3] = test system: human platelets; assay: Human platelet viability, MTS assay; details: for IC50: Platelet, MTS assay (Table 2, FIG. 2)
Method: FIG. 2. depicts dose response curves of ABT-263 and Compound 53 in MOLT-4 T-ALL cells & human platelets determined by MTS assay.
as §1

[4] = test system: MOLT-4 cells; assay: Cell viability assay, MTS, 48 h, MOLT-4; details: for IC50: Homo sapiens, MOLT-4, 48 h
Method: (§2) Acute lymphoblastic leukemia cells (MOLT-4 and RS4; 11) or small cell lung cancer (NCI-H146 or simply H146) were incubated with increasing concentrations of Bcl-xL degraders for 48 h. Cell viability was measured by tetrazolium-based MTS assay.

[5] = test system: RS4;11 cells; assay: Cell viability assay, MTS, 48 h, RS4;11; details: for IC50: Homo sapiens, RS4-11, 48 h
Method: as §2

[6] = test system: NCI-H146 cells; assay: Cell viability assay, MTS, 48 h, NCI-H146; details: for IC50: Homo sapiens
Method: as §2

[7] = test system: human platelets; assay: Human platelet viability, 48 h; details: for IC50: Platelet
[8] = biological target: T1, Bcl-xL (Homo sapiens, UniProt Q07817); assay: Protein degradation assay in MOLT-4 cells (western blot); design: endogenous in cells; host or cells: MOLT-4 cells; details: 16 h, read-out: DC50 (concentration with 50% degradation) of Bcl-xL
Method: (§3) MOLT4 cells and human platelets were incubated with increasing concentrations of test compounds for 16 h. The cells were harvested and lysed in RIPA lysis buffer supplemented with protease and phosphatase inhibitor cocktails. An equal amount of protein (20 μg/lane) was resolved on a pre-cast 4-20% SDS-PAGE gel. Proteins were subsequently transferred to NOVEX PVDF membranes by electrophoresis. The membranes were blocked in blocking buffer (5% non-fat dry milk in TBS-T), and incubated with primary antibodies (at optimized concentrations) overnight at 4° C. After three washings in TBS-T, the membranes were incubated with an appropriate HRP-conjugated secondary antibody for 1 h at room temperature. After extensive washing for three times, the proteins of interest were detected with ECL western blotting detection reagents and recorded with autoradiography (Pierce Biotech, Rockford, Ill., USA). The primary antibodies for Bcl-xL (Cat #2762), Bcl-2 (Cat #2872), Mcl-1 (Cat #5453) and β-actin (Cat #4970) were purchased from Cell Signaling technology. The relative band intensity was measured using ImageJ software and normalized to b-actin. The DC50 (concentration with 50% degradation) was calculated using GraphPad Prism.
MOLT-4 cells and human platelets were incubated with increasing concentrations of test compounds for 16 h. The cells were harvested and lysed in RIPA lysis buffer supplemented with protease and phosphatase inhibitor cocktails. An equal amount of protein (20 μg/lane) was resolved on a pre-cast 4-20% SDS-PAGE gel. Proteins were subsequently transferred to NOVEX PVDF membranes by electrophoresis. […] After extensive washing for three times, the proteins of interest were detected with ECL western blotting detection reagents and recorded with autoradiography (Pierce Biotech, Rockford, Ill., USA). […] The relative band intensity was measured using ImageJ software and normalized to β-actin. The DC50 was calculated using GraphPad Prism.

[9] = test system: caspase-3 and PARP; assay: Downstream apoptotic mechanism, western blot of caspase-3 and PARP in MOLT-4 cells; details: after 16 h treatment
Method: […] At the end of incubation, cells were harvested for western blot analysis of cleaved and full length caspase-3 and poly (ADP) ribose polymerase (PARP). The antibodies for cleaved caspase-3 (Cat #9661) and PARP (Cat #9532) were purchased from Cell Signaling Technology.

[10] = biological target: T1, Bcl-xL; assay: Protein degradation assay in human platelets (western blot); design: endogenous in cells; host or cells: human platelets; details: 16 h
Method: as §3, with “The primary antibodies for Bcl-xL (Cat #2762), Bcl-2 (Cat #2872), Mcl-1 (Cat #5453) and β-actin (Cat #4970) were purchased from Cell Signaling technology.” left out
MOLT-4 cells and human platelets were incubated with increasing concentrations of test compounds for 16 h. […] After extensive washing for three times, the proteins of interest were detected with ECL western blotting detection reagents and recorded with autoradiography (Pierce Biotech, Rockford, Ill., USA). […]

[11] = MOLT-4 T-ALL cells, MTS assay (Table 2, FIG. 2)
[12] = 48 h, read-out: MOLT-4 IC50 (nM, 48 h)
[13] = 48 hours, read-out: IC50 (48 hours) MOLT-4
[14] = 48 h, read-out: RS4, 11 IC50 (nM, 48 h)
[15] = 48 hours, read-out: IC50 (48 hours) RS4;11

T1 sequence (Q07817 whole entry): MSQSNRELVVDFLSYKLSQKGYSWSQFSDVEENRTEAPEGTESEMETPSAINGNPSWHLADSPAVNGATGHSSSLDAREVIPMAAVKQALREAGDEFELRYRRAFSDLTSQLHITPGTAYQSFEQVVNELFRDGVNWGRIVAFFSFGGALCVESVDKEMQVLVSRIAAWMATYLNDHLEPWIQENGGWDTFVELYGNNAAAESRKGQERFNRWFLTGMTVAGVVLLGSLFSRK

Row | IC50 [1, 11] | IC50 ([1]; MOLT-4 cells, 72 h, MTS) | IC50 [2] | IC50 [4, 12] | IC50 [4, 13] | IC50 [5, 14] | IC50 [5, 15] | IC50 [6] | DC50 [8] | Bcl-xL levels in human platelets [10] | Compound | potency in MOLT-4 cells compared with ABT-263 ([1]; MOLT-4 cells, FIG. 2) | effects on human platelets compared with ABT-263 ([3]; FIG. 2) | IC50 [3] | IC50 [7] | potency in killing MOLT-4 cells compared with ABT-263 ([4]; 48 h, FIG. 7) | potency in killing RS4;11 cells compared with ABT-263 ([5]; 48 h, FIG. 7) | potency in killing NCI-H146 cells compared with ABT-263 ([6]; FIG. 7) | effects on human platelets compared with ABT-263 ([7]; FIG. 7) | cleavage of caspase-3 and PARP [9]
1 | 36 nM | 36 nM | 17.4 nM |  |  |  |  |  |  |  | Cc1ncsc1-c1ccc([C@H](C)NC(=O)[C@@H]2C[C@@H](O)CN2C(=O)[C@@H](NC(=O)CCCCCCCCC(=O)NCC2(C)CCC(c3ccc(Cl)cc3)=C(CN3CCN(c4ccc(C(=O)NS(=O)(=O)c5ccc(N[C@H](CCN6CCOCC6)CSc6ccccc6)c(S(=O)(=O)C(F)(F)F)c5)cc4)CC3)C2)C(C)(C)C)cc1 (stereo partly drawn) [Compound 53, N^1-((4′-chloro-4-methyl-6-((4-(4-(((4-(((R)-4-morpholino-1-(phenylthio)butan-2-yl)amino)-3-((trifluoromethyl)sulfonyl)phenyl)sulfonyl)carbamoyl)phenyl)piperazin-1-yl)methyl)-2,3,4,5-tetrahydro-[1,1′-biphenyl]-4-yl)methyl)-N^10—((S)-1-((2S,4R)-4-hydroxy-2-(((S)-1-(4-(4-methylthiazol-5-yl)phenyl)ethyl)carbamoyl)pyrrolidin-1-yl)-3,3-dimethyl-1-oxobutan-2-yl)decanediamide] | more potent than ABT-263 | substantially less effects on human platelets than ABT-263 | 1550 nM |  |  |  |  |  | 
2 |  |  |  | 154 nM | 150 to 500 nM | 497 nM | > 500 nM | 314 nM | 101 nM |  | Cc1ncsc1-c1ccc([C@H](C)NC(=O)[C@@H]2C[C@@H](O)CN2C(=O)[C@@H](NC(=O)CCCCCCCCC(=O)NC[C@@]2(C)CCC(c3ccc(Cl)cc3)=C(CN3CCN(c4ccc(C(=O)NS(=O)(=O)c5ccc(N[C@H](CCN6CCOCC6)CSc6ccccc6)c(S(=O)(=O)C(F)(F)F)c5)cc4)CC3)C2)C(C)(C)C)cc1 [degrader #41, N1-(((S)-4′-chloro-4-methyl-6-((4-(4-(((4-(((R)-4-morpholino-1-(phenylthio)butan-2-yl)amino)-3-((trifluoromethyl)sulfonyl)phenyl)sulfonyl)carbamoyl)phenyl)piperazin-1-yl)methyl)-2,3,4,5-tetrahydro-[1,1′-biphenyl]-4-yl)methyl)-N10-((S)-1-((2S,4R)-4-hydroxy-2-(((S)-1-(4-(4-methylthiazol-5-yl)phenyl)ethyl)carbamoyl)pyrrolidin-1-yl)-3,3-dimethyl-1-oxobutan-2-yl)decanediamide] |  |  |  | 10 µM |  |  |  |  | 
3 |  |  |  | 15.2 nM | < 50 nM | 9.9 nM | < 50 nM | 45 nM | 11.5 nM |  | Cc1ncsc1-c1ccc([C@H](C)NC(=O)[C@@H]2C[C@@H](O)CN2C(=O)[C@@H](NC(=O)CCCCCCCCC(=O)NC[C@]2(C)CCC(c3ccc(Cl)cc3)=C(CN3CCN(c4ccc(C(=O)NS(=O)(=O)c5ccc(N[C@H](CCN6CCOCC6)CSc6ccccc6)c(S(=O)(=O)C(F)(F)F)c5)cc4)CC3)C2)C(C)(C)C)cc1 [degrader #42, N1-(((R)-4′-chloro-4-methyl-6-((4-(4-(((4-(((R)-4-morpholino-1-(phenylthio)butan-2-yl)amino)-3-((trifluoromethyl)sulfonyl)phenyl)sulfonyl)carbamoyl)phenyl)piperazin-1-yl)methyl)-2,3,4,5-tetrahydro-[1,1′-biphenyl]-4-yl)methyl)-N10-((S)-1-((2S,4R)-4-hydroxy-2-(((S)-1-(4-(4-methylthiazol-5-yl)phenyl)ethyl)carbamoyl)pyrrolidin-1-yl)-3,3-dimethyl-1-oxobutan-2-yl)decanediamide] |  |  |  | 1.09 µM | more potent | more potent | equally potent | substantially less effects on human platelets | 
4 |  |  |  | 31 nM |  | 22.2 nM |  | 88 nM | 21.5 nM | did not affect Bcl-xL levels | Cc1ncsc1-c1ccc([C@H](C)NC(=O)[C@@H]2C[C@@H](O)CN2C(=O)[C@@H](NC(=O)CCCCCCCCC(=O)NCC2(C)CCC(c3ccc(Cl)cc3)=C(CN3CCN(c4ccc(C(=O)NS(=O)(=O)c5ccc(N[C@H](CCN6CCOCC6)CSc6ccccc6)c(S(=O)(=O)C(F)(F)F)c5)cc4)CC3)C2)C(C)(C)C)cc1 (stereo partly drawn) [degrader #5, N1-((4′-chloro-4-methyl-6-((4-(4-(((4-(((R)-4-morpholino-1-(phenylthio)butan-2-yl)amino)-3-((trifluoromethyl)sulfonyl)phenyl)sulfonyl)carbamoyl)phenyl)piperazin-1-yl)methyl)-2,3,4,5-tetrahydro-[1,1′-biphenyl]-4-yl)methyl)-N10-((S)-1-((2S,4R)-4-hydroxy-2-(((S)-1-(4-(4-methylthiazol-5-yl)phenyl)ethyl)carbamoyl)pyrrolidin-1-yl)-3,3-dimethyl-1-oxobutan-2-yl)decanediamide] |  |  |  | 3.5 µM |  |  |  |  | induced cleavage of caspase-3 and PARP
5 | 202 nM |  |  | 201 nM |  | 35 nM |  | 36 nM |  |  | CC1(C)CCC(c2ccc(Cl)cc2)=C(CN2CCN(c3ccc(C(=O)NS(=O)(=O)c4ccc(N[C@H](CCN5CCOCC5)CSc5ccccc5)c(S(=O)(=O)C(F)(F)F)c4)cc3)CC2)C1 [ABT-263, reference compound] |  |  | 190 nM | 0.5 µM |  |  |  |  | 

From patent US20220169628A1 (University of Florida Research Foundation, Incorporated, priority 2019, published 2022)
